Data on four compounds can be found in PMC2360155, “Novel retinoic acid metabolism blocking agents have potent inhibitory activities on human breast cancer cells and tumour growth” (British Journal of Cancer, 2007).

Assay [1] addresses T1, CRABPII (Mus musculus, UniProt P22935).
T1 construct: Wild-type full-length cDNAs for mouse CRABPI and CRABPII were subcloned into the prokaryotic expression vector pRSETB; pRSETB vector fusion leader (purified on Ni-NTA, so a His tag); made in house; host or cells: Escherichia coli BL21(DE3)pLys
T1 sequence (P22935 1-138): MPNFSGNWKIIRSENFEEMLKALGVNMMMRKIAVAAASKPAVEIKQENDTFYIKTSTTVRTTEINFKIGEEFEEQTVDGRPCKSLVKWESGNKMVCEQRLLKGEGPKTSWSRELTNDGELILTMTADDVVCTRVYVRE
As to the kind of experiment: CRABP competition binding assay, CRABPII. Conditions: for IC50: competition with [3H]-all-trans-RA. How it is done: Wild-type full-length cDNAs for mouse CRABPI and CRABPII were subcloned into the prokaryotic expression vector pRSETB and transformed into Escherichia coli strain BL21(DE3)pLys ([Chen et al, 1995]). Recombinant fusion proteins were prepared essentially as we have described previously using Ni-NTA resin ([Chen et al, 1995]). The binding of each RAMBA to CRABPI and CRABPII was determined by competition binding assays as described previously ([Chen et al, 1995]). […] IC50 values were calculated as described above in the RAR binding studies.

The test system of assay [2] is T47D cells. Further details: method as in Patel et al. (2004). The settings on record: inhibition of cell proliferation by 50%; ref Patel et al. (2004); read-out: Cellular IC50, T47D; cited from earlier work.
The target of assay [3] is T2, RARγ (Mus musculus, UniProt P18911).
T2 construct: expressed in transfected cells; host or cells: CV-1 cells
T2 sequence (P18911 1-458): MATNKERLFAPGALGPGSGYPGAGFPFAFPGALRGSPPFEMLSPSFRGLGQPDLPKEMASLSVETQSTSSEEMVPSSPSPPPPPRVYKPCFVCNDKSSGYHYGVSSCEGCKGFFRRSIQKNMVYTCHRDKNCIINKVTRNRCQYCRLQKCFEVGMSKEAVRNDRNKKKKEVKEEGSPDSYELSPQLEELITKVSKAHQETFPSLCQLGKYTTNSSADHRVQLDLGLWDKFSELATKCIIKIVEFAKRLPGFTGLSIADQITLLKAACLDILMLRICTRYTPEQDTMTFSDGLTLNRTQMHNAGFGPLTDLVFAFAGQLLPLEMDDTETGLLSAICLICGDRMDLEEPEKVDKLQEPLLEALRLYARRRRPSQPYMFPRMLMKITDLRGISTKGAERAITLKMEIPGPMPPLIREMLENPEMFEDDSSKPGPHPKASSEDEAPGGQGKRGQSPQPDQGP
As to the kind of experiment: Transactivation assay (RARE-CAT reporter, CV-1 cells), RARγ. The class given is cell-based. The settings on record: 50% of maximal activity obtained with 10^−6 M all-trans-RA. How it is done:
Briefly, CV-1 cells were cotransfected with 4 μg RAR subtype (RARα, RARβ or RARγ) expression vector construct in pSG5, 4 μg RARE-CAT reporter DNA and 1 μg pCMV-β-gal DNA. Twenty-four hours following transfection, the cells were treated with various concentrations of each RAMBA ranging from 10^−11–10^−5 M along with an ethanol carrier control. Additional cells were treated with 10^−6 M all-trans-RA for normalisation. Twenty-four hours later, the cells were harvested and CAT and β-gal activities were assayed.

Assay [4] concerns the target T2, RARγ. As to the kind of experiment: Retinoid receptor competition binding assay, RARγ. Conditions: competition with 1.0 nM [3H]-all-trans-RA.
Assay [5] concerns the target T3, RXRα (Homo sapiens, UniProt P19793).
T3 construct: The full-length cDNA clones for RARα, RARβ, RARγ and RXRα were cloned into the prokaryotic expression vector pET29; S-Tag; made in house; host or cells: prokaryotic host (pET29 vector)
T3 sequence (P19793 1-462): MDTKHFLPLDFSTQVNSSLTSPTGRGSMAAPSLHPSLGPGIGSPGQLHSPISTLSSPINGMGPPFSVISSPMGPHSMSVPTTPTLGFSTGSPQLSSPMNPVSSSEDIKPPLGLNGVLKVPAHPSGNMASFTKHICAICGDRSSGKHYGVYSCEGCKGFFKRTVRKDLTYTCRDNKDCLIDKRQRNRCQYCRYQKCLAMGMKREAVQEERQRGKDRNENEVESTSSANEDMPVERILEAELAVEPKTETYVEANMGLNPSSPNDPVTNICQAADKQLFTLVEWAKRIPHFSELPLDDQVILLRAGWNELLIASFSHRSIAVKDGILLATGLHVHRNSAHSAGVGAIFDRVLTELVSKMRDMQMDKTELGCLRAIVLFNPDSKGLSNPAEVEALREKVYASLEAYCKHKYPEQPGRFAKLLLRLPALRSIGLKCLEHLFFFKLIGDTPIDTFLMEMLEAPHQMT
As to the kind of experiment: Retinoid receptor competition binding assay, RXRα. Conditions: competition with 1.0 nM [3H]-9-cis-RA.

Assay [6] has as its target T4, RARβ (Mus musculus, UniProt P22605).
T4 construct: expressed in transfected cells; host or cells: CV-1 cells
T4 sequence (P22605 1-448 isoform P22605-3): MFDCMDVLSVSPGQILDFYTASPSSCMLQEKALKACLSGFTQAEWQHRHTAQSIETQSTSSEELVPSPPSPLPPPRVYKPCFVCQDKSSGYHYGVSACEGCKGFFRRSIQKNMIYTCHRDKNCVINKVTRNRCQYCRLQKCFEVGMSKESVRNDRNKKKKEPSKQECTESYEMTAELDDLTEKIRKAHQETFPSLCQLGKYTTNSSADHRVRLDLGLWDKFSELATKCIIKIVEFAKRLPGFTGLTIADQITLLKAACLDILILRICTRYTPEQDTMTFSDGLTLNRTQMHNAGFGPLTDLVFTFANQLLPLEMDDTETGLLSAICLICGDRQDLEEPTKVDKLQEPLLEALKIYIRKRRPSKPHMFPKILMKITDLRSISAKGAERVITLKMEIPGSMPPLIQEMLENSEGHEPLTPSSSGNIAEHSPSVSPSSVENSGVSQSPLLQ
As to the kind of experiment: Retinoid receptor competition binding assay, RARβ. Conditions: competition with 1.0 nM [3H]-all-trans-RA.

Assay [7] has as its target T5, CRABPI (Mus musculus, UniProt P62965).
T5 construct: Wild-type full-length cDNAs for mouse CRABPI and CRABPII were subcloned into the prokaryotic expression vector pRSETB; pRSETB vector fusion leader (purified on Ni-NTA, so a His tag); made in house; host or cells: Escherichia coli BL21(DE3)pLys
As to the kind of experiment: CRABP competition binding assay, CRABPI. Conditions: competition with [3H]-all-trans-RA; read-out: CRAPBI IC50. How it is done:
IC50 values were calculated as described above in the RAR binding studies.

T5 sequence (P62965 whole entry, the tested form may be a part): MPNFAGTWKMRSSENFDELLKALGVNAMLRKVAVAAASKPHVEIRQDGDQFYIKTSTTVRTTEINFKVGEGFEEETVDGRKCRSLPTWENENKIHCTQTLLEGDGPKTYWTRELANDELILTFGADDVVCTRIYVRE

The Kd is the equilibrium constant for the complex coming apart. One may read the IC50 as the midpoint of a concentration-inhibition curve. As to `CC1=C(/C=C/C(C)=C/C=C/C(C)=C/C(=O)O)C(C)(C)CCC1` [ATRA, all-trans-retinoic acid, reference compound], the dissociation constant Kd in assay [1] (for comparison) came to 60 nM. In assay [2], the half-inhibitory concentration (IC50) is 8 nM.

Usually EC50 stands for the concentration that produces a half-maximal response. High values mean a less potent agent, low ones a more potent agent. As for `CC1=C(/C=C/C(C)=C/C=C/C(C)=C/C(=O)O)C(C)(C)CCC1n1ccnc1` (stereo not shown) [VN/14-1], the EC50 in assay [3] was found to be 1 µM. Besides, the half-inhibitory concentration (IC50) was 16 nM in assay [4]; over 500 nM in assay [5]; 200 nM in assay [6]; over 500 nM in assay [1]; 3 nM in assay [2]; over 500 nM in assay [7].

With `CC1=C(/C=C/C(C)=C/C=C/C(C)=C/C(=O)Nc2ccc(O)cc2)C(C)(C)CCC1n1ccnc1` (stereo not shown) [VN/66-1], in assay [3], the half-maximal effective concentration (EC50) was over 10 µM. In addition, the IC50 in assay [4] is over 1000 nM; in assay [5], over 500 nM; in assay [6], over 1000 nM; in assay [1], over 500 nM; in assay [2] it was 570 nM; in assay [7], over 500 nM.

Compound `CC1=C(/C=C/C(C)=C/C=C/C(C)=C\C(=O)Nc2ccc(O)cc2)C(C)(C)CCC1n1ccnc1` (stereo not shown) [VN/69-1] yielded a concentration for a half-maximal effect (EC50) in assay [3] of over 10 µM. The IC50 in assay [4] was over 1000 nM; in assay [5], over 500 nM; in assay [6] it was over 1000 nM; in assay [1], over 500 nM; in assay [7], over 500 nM.
